In patent US9029391B2 (priority 2011, dated 2015):

These molecules were tested on HIV (assay: MT4 Assay (anti-HIV activity)). Conditions: Human immunodeficiency virus 1, 96 h, read-out: HIV MT4 Assay IC50, HTLV-1 transformed cell line MT-4, cell titer glo, 10 point dose response curve.
Format: cell-based
Procedure: Antiviral HIV activity and cytotoxicity values for compounds of the invention from Table 1 were measured in parallel in the HTLV-1 transformed cell line MT-4 based on the method previously described (Hazen et al., 2007, In vitro antiviral activity of the novel, tyrosyl-based human immunodeficiency virus (HIV) type 1 protease inhibitor brecanavir (GW640385) in combination with other antiretrovirals and against a panel of protease inhibitor-resistant HIV (Hazen et al., “In vitro antiviral activity of the novel, tyrosyl-based human immunodeficiency virus (HIV) type 1 protease inhibitor brecanavir (GW640385) in combination with other antiretrovirals and against a panel of protease inhibitor-resistant HIV”, Antimicrob. Agents Chemother. 2007, 51: 3147-3154; and Pauwels et al., “Sensitive and rapid assay on MT-4 cells for the detection of antiviral compounds against the AIDS virus”, J. of Virological Methods 1987, 16: 171-185).
Luciferase activity was measured 96 hours later by adding a cell titer glo (Promega, Madison, Wis.). Percent inhibition of cell protection data was plotted relative to no compound control. Under the same condition, cytotoxicity of the compounds was determined using cell titer glo (Promega, Madison, Wis.). IC50s were determined from a 10 point dose response curve using 3-4-fold serial dilution for each compound, which spans a concentration range >1000 fold.

Row | SMILES | IC50 [µM]
1 | Cn1c(C(OC(C)(C)C)C(=O)O)c(-c2ccc(Cl)c(Cl)c2)c2ccccc2c1=O (centres unmarked) [Example 11, 2-(tert-butoxy)-2-[4-(3,4-dichlorophenyl)-2-methyl-1-oxo-1,2-dihydroisoquinolin-3-yl]acetic acid] | 14.8
2 | Cn1c(C(OC(C)(C)C)C(=O)O)c(-c2cc(Cl)cc(Cl)c2)c2ccccc2c1=O (centres unmarked) [Example 12, 2-(tert-butoxy)-2-[4-(3,5-dichlorophenyl)-2-methyl-1-oxo-1,2-dihydroisoquinolin-3-yl]acetic acid] | 36.7
3 | Cn1c(C(OC(C)(C)C)C(=O)O)c(-c2cccc(C(F)(F)F)c2)c2ccccc2c1=O (centres unmarked) [Example 13, 2-(tert-butoxy)-2-{2-methyl-1-oxo-4-[3-(trifluoromethyl)phenyl]-1,2-dihydroisoquinolin-3-yl}acetic acid] | 23.8
4 | Cn1c(C(OC(C)(C)C)C(=O)O)c(-c2cc(Cl)ccc2Cl)c2ccccc2c1=O (centres unmarked) [Example 14, 2-(tert-butoxy)-2-[4-(2,5-dichlorophenyl)-2-methyl-1-oxo-1,2-dihydroisoquinolin-3-yl]acetic acid] | 2.57
5 | COc1cccc(-c2c(C(OC(C)(C)C)C(=O)O)n(C)c(=O)c3ccccc23)c1 (centres unmarked) [Example 15, 2-(tert-butoxy)-2-[4-(3-methoxyphenyl)-2-methyl-1-oxo-1,2-dihydroisoquinolin-3-yl]acetic acid] | 8.59
6 | Cn1c(C(OC(C)(C)C)C(=O)O)c(-c2cccc(OC(F)(F)F)c2)c2ccccc2c1=O (centres unmarked) [Example 16, 2-(tert-butoxy)-2-{2-methyl-1-oxo-4-[3-(trifluoromethoxy)phenyl]-1,2-dihydroisoquinolin-3-yl}acetic acid] | 20.7
7 | Cn1c(C(OC(C)(C)C)C(=O)O)c(-c2ccc(C(F)(F)F)cc2)c2ccccc2c1=O (centres unmarked) [Example 17, 2-(tert-butoxy)-2-{2-methyl-1-oxo-4-[4-(trifluoromethyl)phenyl]-1,2-dihydroisoquinolin-3-yl}acetic acid] | 18.4
8 | Cc1cccc(-c2c(C(OC(C)(C)C)C(=O)O)n(C)c(=O)c3ccccc23)c1 (centres unmarked) [Example 18, 2-(tert-butoxy)-2-[2-methyl-4-(3-methylphenyl)-1-oxo-1,2-dihydroisoquinolin-3-yl]acetic acid] | 3.58
9 | Cc1c(-c2c(C(OC(C)(C)C)C(=O)O)n(C)c(=O)c3ccccc23)ccc2c1CCCO2 (centres unmarked) [Example 19, 2-(tert-butoxy)-2-[2-methyl-4-(5-methyl-3,4-dihydro-2H-1-benzopyran-6-yl)-1-oxo-1,2-dihydroisoquinolin-3-yl]acetic acid] | 0.41
10 | Cc1cc2c(cc1-c1c(C(OC(C)(C)C)C(=O)O)n(C)c(=O)c3ccccc13)CCCO2 (centres unmarked) [Example 20, 2-(tert-butoxy)-2-[2-methyl-4-(7-methyl-3,4-dihydro-2H-1-benzopyran-6-yl)-1-oxo-1,2-dihydroisoquinolin-3-yl]acetic acid] | 3.79
11 | Cn1c(C(OC(C)(C)C)C(=O)O)c(-c2ccc3c(c2Cl)CCCO3)c2ccccc2c1=O (centres unmarked) [Example 21, 2-(tert-butoxy)-2-[4-(5-chloro-3,4-dihydro-2H-1-benzopyran-6-yl)-2-methyl-1-oxo-1,2-dihydroisoquinolin-3-yl]acetic acid] | 3.5
12 | Cn1c(C(OC(C)(C)C)C(=O)O)c(-c2ccc(OC3CCCCC3)cc2)c2ccccc2c1=O (centres unmarked) [Example 24, 2-(tert-butoxy)-2-{4-[4-(cyclohexyloxy)phenyl]-2-methyl-1-oxo-1,2-dihydroisoquinolin-3-yl}acetic acid] | 25
13 | Cn1c(C(OC(C)(C)C)C(=O)O)c(-c2ccc3c(c2)CCCO3)c2cc(F)ccc2c1=O (centres unmarked) [Example 25, 2-(tert-butoxy)-2-[4-(3,4-dihydro-2H-1-benzopyran-6-yl)-6-fluoro-2-methyl-1-oxo-1,2-dihydroisoquinolin-3-yl]acetic acid] | 0.67
14 | Cn1c(C(OC(C)(C)C)C(=O)O)c(-c2ccc3c(c2)CCCO3)c2cc(Cl)ccc2c1=O (centres unmarked) [Example 26, 2-(tert-butoxy)-2-[6-chloro-4-(3,4-dihydro-2H-1-benzopyran-6-yl)-2-methyl-1-oxo-1,2-dihydroisoquinolin-3-yl]acetic acid] | 1.9
